Source: PubChem BioAssay AID2060609 (Molecular Pharmacology Branch, DTP, NCI, 2025)
“And” between values parts separate entries of the source, which are not always exact repeats. Equal values may be shown once.

Tested on: 855422-203-R-J1-PDC complex spheroids, viability
Experiment: Anticancer human tumor 855422-203-R-J1-PDC patient-derived bladder carcinoma cell line growth inhibition [CLK]
Details: for viability, T/C: stronger effect = lower value; active = viability on the fitted dose curve at most 10% of control; inactive = the rest
In short: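 Multi-cell-type spheroids combined patient-derived tumor cells with HUVEC endothelial cells and human mesenchymal stem cells. Paired agents were dosed in half-log steps down from about clinical Cmax, or from 10 microM where Cmax was unknown.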

[1] = curve of first compound, second compound 0.0316 µM
[2] = curve of first compound, second compound 0.1 µM
[3] = curve of first compound, second compound 0.316 µM
[4] = curve of first compound, second compound 1 µM
[5] = curve of first compound, second compound 3.16 µM
[6] = curve of first compound, second compound 10 µM
[7] = second compound 0.0316 µM, first compound 0.0316 µM
[8] = second compound 0.0316 µM, first compound 0.1 µM
[9] = second compound 0.0316 µM, first compound 0.316 µM
[10] = second compound 0.0316 µM, first compound 1 µM
[11] = second compound 0.0316 µM, first compound 3.16 µM
[12] = second compound 0.0316 µM, first compound 10 µM
[13] = second compound 0.1 µM, first compound 0.0316 µM
[14] = second compound 0.1 µM, first compound 0.1 µM
[15] = second compound 0.1 µM, first compound 0.316 µM
[16] = second compound 0.1 µM, first compound 1 µM
[17] = second compound 0.1 µM, first compound 3.16 µM
[18] = second compound 0.1 µM, first compound 10 µM
[19] = second compound 0.316 µM, first compound 0.0316 µM
[20] = second compound 0.316 µM, first compound 0.1 µM
[21] = second compound 0.316 µM, first compound 0.316 µM
[22] = second compound 0.316 µM, first compound 1 µM
[23] = second compound 0.316 µM, first compound 3.16 µM
[24] = second compound 0.316 µM, first compound 10 µM
[25] = second compound 1 µM, first compound 0.0316 µM
[26] = second compound 1 µM, first compound 0.1 µM
[27] = second compound 1 µM, first compound 0.316 µM
[28] = second compound 1 µM, first compound 1 µM
[29] = second compound 1 µM, first compound 3.16 µM
[30] = second compound 1 µM, first compound 10 µM
[31] = second compound 3.16 µM, first compound 0.0316 µM
[32] = second compound 3.16 µM, first compound 0.1 µM
[33] = second compound 3.16 µM, first compound 0.316 µM
[34] = second compound 3.16 µM, first compound 1 µM
[35] = second compound 3.16 µM, first compound 3.16 µM
[36] = second compound 3.16 µM, first compound 10 µM
[37] = second compound 10 µM, first compound 0.0316 µM
[38] = second compound 10 µM, first compound 0.1 µM
[39] = second compound 10 µM, first compound 0.316 µM
[40] = second compound 10 µM, first compound 1 µM
[41] = second compound 10 µM, first compound 3.16 µM
[42] = second compound 10 µM, first compound 10 µM
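Also: spheroids exposed to drugs for seven days before readout.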
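For viability, T/C in this document: 100% = DMSO vehicle control wells.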

C=CC(=O)N1CCN(c2nc(=O)n(-c3c(C)ccnc3C(C)C)c3nc(-c4c(O)cccc4F)c(F)cc23)C(C)C1 (configuration not stated) + CN1CCN(c2cc(C(=O)Nc3cc4cc(-c5cnn(C)c5)ccc4cn3)ccn2)CC1
> 10000 nM: IC50 [1] | IC50 [2]
inactive: viability, T/C [7] 99% | viability, T/C [8] 110% | viability, T/C [9] 134% | viability, T/C [10] 138% | viability, T/C [11] 169% | viability, T/C [12] 119% | viability, T/C [13] 85.5% | viability, T/C [14] 92.3% | viability, T/C [15] 94.7% | viability, T/C [16] 116% | viability, T/C [17] 113% | viability, T/C [18] 82.1% | viability, T/C [19] 12.1% | viability, T/C [20] 18.2% | viability, T/C [21] 17.9% | viability, T/C [22] 17.6% | viability, T/C [23] 17.6% | viability, T/C [24] 7.91%
active: viability, T/C [25] 0.24% | viability, T/C [26] 0.27% | viability, T/C [27] 0.3% | viability, T/C [28] 0.42% | viability, T/C [29] 0.52% | viability, T/C [30] 2.45% | viability, T/C [31] 0.88% | viability, T/C [32] 0.76% | viability, T/C [33] 2.22% | viability, T/C [34] 1.37% | viability, T/C [35] 1.55% | viability, T/C [36] 1.14% | viability, T/C [37] 0.53% | viability, T/C [38] 0.49% | viability, T/C [39] 0.4% | viability, T/C [40] 0.89% | viability, T/C [41] 0.88% | viability, T/C [42] 1.04%
< 31.6 nM: IC50 [3] | IC50 [4] | IC50 [5] | IC50 [6]

C=CC(=O)Nc1cc(Nc2nccc(-c3cn(C)c4ccccc34)n2)c(OC)cc1N(C)CCN(C)C
inactive: viability, T/C (compound 0.000949 µM) 112% and 158% | viability, T/C (compound 0.003 µM) 91.3% and 98.2% | viability, T/C (compound 0.00949 µM) 107% and 117% | viability, T/C (compound 0.03 µM) 99.9% and 90.9% | viability, T/C (compound 0.0949 µM) 108% and 118% | viability, T/C (compound 0.3 µM) 101% and 98.4%
> 300 nM: IC50 (curve of compound)

CCCS(=O)(=O)Nc1ccc(F)c(C(=O)c2c[nH]c3ncc(-c4ccc(Cl)cc4)cc23)c1F + CN1CCN(c2cc(C(=O)Nc3cc4cc(-c5cnn(C)c5)ccc4cn3)ccn2)CC1
active: viability, T/C [12] 3.42% | viability, T/C [18] 2.76% | viability, T/C [19] 6.38% | viability, T/C [20] 8.19% | viability, T/C [21] 9.52% | viability, T/C [22] 7.73% | viability, T/C [23] 6.35% | viability, T/C [24] 1.15% | viability, T/C [25] 0.16% | viability, T/C [26] 0.18% | viability, T/C [27] 0.46% | viability, T/C [28] 0.19% | viability, T/C [29] 0.19% | viability, T/C [30] 0.08% | viability, T/C [31] 0.34% | viability, T/C [32] 0.68% | viability, T/C [33] 0.32% | viability, T/C [34] 0.46% | viability, T/C [35] 1.09% | viability, T/C [36] 0.77% | viability, T/C [37] 0.23% | viability, T/C [38] 0.51% | viability, T/C [39] 0.21% | viability, T/C [40] 0.35% | viability, T/C [41] 0.5% | viability, T/C [42] 0.29%
4790 nM: IC50 [1]
< 31.6 nM: IC50 [3] | IC50 [4] | IC50 [5] | IC50 [6]
inactive: viability, T/C [7] 83.9% | viability, T/C [8] 88.1% | viability, T/C [9] 103% | viability, T/C [10] 106% | viability, T/C [11] 76.5% | viability, T/C [13] 74.2% | viability, T/C [14] 85.5% | viability, T/C [15] 87.9% | viability, T/C [16] 86.5% | viability, T/C [17] 81.8%
5020 nM: IC50 [2]

C=CC(=O)N1CCN(c2nc(=O)n(-c3c(C)ccnc3C(C)C)c3nc(-c4c(O)cccc4F)c(F)cc23)C(C)C1 (configuration not stated) + CNC(=O)c1ccc(Nc2nc(OC3CCCC3)c3c(-c4ccc5nc(C)oc5c4)c[nH]c3n2)c(OC)c1
< 31.6 nM: IC50 [2] | IC50 [3] | IC50 [4] | IC50 [5] | IC50 [6]
> 10000 nM: IC50 [1]
inactive: viability, T/C [7] 78.8% | viability, T/C [8] 91.5% | viability, T/C [9] 104% | viability, T/C [10] 103% | viability, T/C [11] 179% | viability, T/C [12] 127% | viability, T/C [13] 47.5% | viability, T/C [14] 50.9% | viability, T/C [15] 45.8% | viability, T/C [16] 41.6% | viability, T/C [17] 43.5% | viability, T/C [18] 23.9% | viability, T/C [19] 21.1% | viability, T/C [20] 19% | viability, T/C [21] 21.8% | viability, T/C [22] 27% | viability, T/C [23] 22.7% | viability, T/C [24] 23.4% | viability, T/C [25] 21.2% | viability, T/C [26] 17.7% | viability, T/C [27] 21% | viability, T/C [28] 22.5% | viability, T/C [29] 21.5% | viability, T/C [30] 19.4% | viability, T/C [31] 16.2% | viability, T/C [32] 18.3% | viability, T/C [33] 18.6% | viability, T/C [34] 18.9% | viability, T/C [35] 17% | viability, T/C [36] 14.1% | viability, T/C [37] 19.4% | viability, T/C [38] 17.1% | viability, T/C [39] 19.5% | viability, T/C [40] 29.2% | viability, T/C [41] 17.6% | viability, T/C [42] 16.7%

COC1C=CCC(C)C(C)S(=O)(=O)NC(=O)c2ccc3c(c2)N(CC2CCC21)CC1(CCCc2cc(Cl)ccc21)CO3 (configuration not stated) + CN1CCN(c2cc(C(=O)Nc3cc4cc(-c5cnn(C)c5)ccc4cn3)ccn2)CC1
inactive: viability, T/C [7] 89.7% | viability, T/C [8] 104% | viability, T/C [9] 101% | viability, T/C [10] 105% | viability, T/C [11] 110% | viability, T/C [13] 73.2% | viability, T/C [14] 79.6% | viability, T/C [15] 78.4% | viability, T/C [16] 77.5% | viability, T/C [17] 74.4%
4810 nM: IC50 [2]
active: viability, T/C [12] 7.64% | viability, T/C [18] 7.3% | viability, T/C [19] 5.49% | viability, T/C [20] 8.06% | viability, T/C [21] 8.27% | viability, T/C [22] 8.14% | viability, T/C [23] 9.01% | viability, T/C [24] 3.13% | viability, T/C [25] 0.17% | viability, T/C [26] 0.15% | viability, T/C [27] 0.14% | viability, T/C [28] 0.18% | viability, T/C [29] 0.12% | viability, T/C [30] 0.64% | viability, T/C [31] 0.29% | viability, T/C [32] 0.46% | viability, T/C [33] 0.42% | viability, T/C [34] 0.42% | viability, T/C [35] 0.31% | viability, T/C [36] 0.15% | viability, T/C [37] 0.31% | viability, T/C [38] 0.16% | viability, T/C [39] 0.31% | viability, T/C [40] 0.39% | viability, T/C [41] 0.95% | viability, T/C [42] 0.32%
5970 nM: IC50 [1]
< 31.6 nM: IC50 [3] | IC50 [4] | IC50 [5] | IC50 [6]

C=C(F)C(=O)N1CCN(c2nc(OCC3CCCN3C)nc3c2CCN(c2cccc4cccc(Cl)c24)C3)CC1CC#N (configuration not stated) + CNC(=O)c1ccc(Nc2nc(OC3CCCC3)c3c(-c4ccc5nc(C)oc5c4)c[nH]c3n2)c(OC)c1
active: viability, T/C [12] 0.16% | viability, T/C [18] 0.11% | viability, T/C [23] 10.1% | viability, T/C [24] 0.07% | viability, T/C [29] 8.14% | viability, T/C [30] 0.07% | viability, T/C [35] 9.57% | viability, T/C [36] 1.06% | viability, T/C [42] 8.64%
2500 nM: IC50 [1]
inactive: viability, T/C [7] 83.1% | viability, T/C [8] 88.6% | viability, T/C [9] 81.8% | viability, T/C [10] 132% | viability, T/C [11] 38.1% | viability, T/C [13] 24.2% | viability, T/C [14] 21% | viability, T/C [15] 23.7% | viability, T/C [16] 27.5% | viability, T/C [17] 10.2% | viability, T/C [19] 16.6% | viability, T/C [20] 19.6% | viability, T/C [21] 19.9% | viability, T/C [22] 18.7% | viability, T/C [25] 21.5% | viability, T/C [26] 15.8% | viability, T/C [27] 19.4% | viability, T/C [28] 18.6% | viability, T/C [31] 18.5% | viability, T/C [32] 14.9% | viability, T/C [33] 14.8% | viability, T/C [34] 20.5% | viability, T/C [37] 18.1% | viability, T/C [38] 21.6% | viability, T/C [39] 21% | viability, T/C [40] 16.9% | viability, T/C [41] 7.87%
< 31.6 nM: IC50 [2] | IC50 [3] | IC50 [4] | IC50 [5] | IC50 [6]
